Test results reported in US6825230B2, “Spiro and dispiro 1,2,4-trixolane antimalarials” (Medicines for Malaria Venture MMV, priority 2002, dated 2004).
≈ marks a conversion by molar mass, not a printed value.

Experiments:
P. berghei ANKA strain [1] = test: Onset of action and recrudescence experiment, single 100 mg/kg po; format: in vivo, Plasmodium berghei; conditions: single 100 mg/kg po (SSV) on day +3 post-infection; recrudescence = >5% parasitemia; followed up to 60 days; groups of five
Experimental: The onset of drug action was determined after a single fixed dose of 100 mg/kg (SSV vehicle) po to groups of five animals on day +3 post-infection (day 0).
(§1) Moro NMRI male mice (Fu Albino specific pathogen free) weighing 18±2 g were infected intravenously (i.v.) with 2×10^7 P. berghei ANKA strain-infected erythrocytes from donor mice on day 0 of the experiment. From donor mice with circa 30% parasitemia, heparinized blood was taken and diluted in physiological saline to 10^8 parasitized erythrocytes per ml. An aliquot (0.2 ml) of this suspension was injected i.v. into experimental and control groups of mice. […] Throughout the experiments, mice were kept in groups of three or five animals in Makrolon type II cages in an air-conditioned animal room at 22 to 23° C.

[2] = system: Schistosoma mansoni adult worms (49-day-old); test: Effect on adult schistosomes (49-day-old) in infected mice; format: in vivo; conditions: single 400 mg/kg per os; for % reduction of adult worms growth at day 49 after per os application of 400 mg/kg, TWR (%): 49-day-old adults, total worm reduction rate; for Adult worms day 49, per os 400 mg/kg, DEAD WORM (%): percentage of dead worm in the liver
Experimental: Mice were infected with 100 Schistosoma mansoni cercariae on day 49 post-treatment. Each group was treated per os with OZ compounds at single doses of 200, 400, and 600 mg/kg. Untreated mice served as the control. All groups were killed 4 weeks after treatment and the liver and intestine were removed and separated. The liver and intestine were compressed and alive male and female worms could be seen and counted.

[3] = system: chloroquine-sensitive NF54 strain of P. falciparum; test: In vitro antimalarial semiautomated microdilution assay ([3H]-hypoxanthine incorporation), NF54 strain; format: cell-based, Plasmodium falciparum; conditions: Plasmodium falciparum; chloroquine-sensitive NF54 strain, 72 h incubation; read-out: IC50 (ng/ml) NF54
How it was run: (§2)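 Semiautomated microdilution against intraerythrocytic P. falciparum from asynchronous stock cultures, with growth tracked by [3H]-hypoxanthine incorporation. IC50 values were estimated by Logit regression analysis.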

[4] = system: ANKA strain of P. berghei; test: Single dose STI in vivo screen in infected mice; design: species or system Plasmodium berghei; conditions: for Survival (days) 10 mg/kg SSV po: single 10 mg/kg po in SSV; for Activity (%) 10 mg/kg SSV po: single 10 mg/kg po in standard suspending vehicle (SSV) on day 1 post-infection; for Survival (days) 3 mg/kg SSV po / Activity (%) 3 mg/kg SSV po: single 3 mg/kg po in SSV
[5] = system: chloroquine-resistant K1 strain of P. falciparum; test: In vitro antimalarial semiautomated microdilution assay ([3H]-hypoxanthine incorporation), K1 strain; format: cell-based, Plasmodium falciparum; conditions: Plasmodium falciparum; chloroquine-resistant K1 strain, 72 h incubation; read-out: IC50 (ng/ml) K1
How it was run: as §2

[6] = Pharmacokinetics in rats (IV and oral dosing); conditions: rat, in vivo
From the text: (§3) Artesunate is listed as a reference compound.

P. berghei ANKA strain [7] = test: Prophylactic activity, single 100 mg/kg po at various times before infection; format: in vivo, Plasmodium berghei; conditions: for Prophylactic Activity (%) 72 h: po, 100 mg/kg; for Prophylactic Activity (%) 24 h: single 100 mg/kg po 24 h before infection; for Prophylactic Activity (%) 24 h / Prophylactic Activity (%) 48 h / Prophylactic Activity (%) 0 h: parasitemia reduction on day 3 post-infection; for Prophylactic Activity (%) 48 h: single 100 mg/kg po 48 h before infection; for Prophylactic Activity (%) 0 h: single 100 mg/kg po at 0 h
Experimental: as §1
Prophylactic activities of the compounds were compared after administering po single dose of 100 mg/kg to different groups of five animals at various times before infection. All groups including an untreated control group, were then infected at the same time. Parasitemia was determined for each animal on day 3 post-infection, and percent of reduction of the level of parasitemia compared to levels for animals given no drug is determined.

[8] = Pharmacokinetics in dogs (IV and oral dosing); conditions: in vivo, dog; for bioavailability: some values marked (V), not defined
From the text: as §3

P. berghei ANKA strain [9] = test: Divided 3x10 mg/kg vs single 1x30 mg/kg po dose in infected mice; format: in vivo, Plasmodium berghei; conditions: for Survival (days) 3 × 10 mg/kg p.o. SSV / Activity (%) 3 × 10 mg/kg p.o. SSV: 10 mg/kg po on days 1, 2, 3 post-infection
Experimental: as §1
(§4) They were administered per os (p.o.) in a total volume of 0.01 ml per gram of mouse. The activity of the compound was determined by a variety of methods outlined in subsequent sections. Survival time was also recorded, and survival to day 30 post-infection was considered to be a cure.
The first experiment conducted consisted of administration of a divided 3×10 mg/kg p.o. dose administered on days 1, 2, and 3 post-infection vs. a single 1×30 mg/kg po dose administered on day 1 post-infection. On day 4 post-infection, blood smears of all animals were prepared and stained with Giemsa. […] Compounds were administered orally in the SSV vehicle.

P. berghei ANKA strain [10] = test: Divided 3x3 mg/kg and 3x1 mg/kg po doses in infected mice; format: in vivo, Plasmodium berghei; conditions: for Cures: 3 mg/kg, 720 h
Experimental: as §1, §4
The second experiment consists of administration of divided 3×3 mg/kg and 3×1 mg/kg po doses administered on days 1, 2, and 3 post-infection. On day 4 post-infection, blood smears of all animals were prepared and stained with Giemsa. […] Compounds were administered orally in the SSV vehicle.

[11] = percent reduction in parasitemia on day 3
[12] = 3 × 1 mg/kg p.o. SSV on days 1, 2, 3 post-infection
[13] = 3 × 3 mg/kg p.o. SSV on days 1, 2, 3 post-infection
[14] = 3 × 3 mg/kg p.o. SSV on days 1, 2, 3 post-infection, percent reduction of parasitemia vs control on day 4

## CCO[C@H]1O[C@@H]2O[C@@]3(C)CC[C@H]4[C@H](C)CC[C@@H]([C@H]1C)[C@@]24OO3 [Arteether, arteether, reference compound]
P. berghei ANKA strain [1]
  Time of Recrudescence: 11.4 days

## NC(=O)CNC[C@H]1CC[C@]2(CC1)OOC1(O2)C2CC3CC(C2)CC1C3 (stereo partly drawn) [OZ256]
[2]
  % reduction of adult worms growth at day 49 after per os application of 400 mg/kg, TWR (%): 10%
  Adult worms day 49, per os 400 mg/kg, DEAD WORM (%): 19%
[3]
  IC50: 0.2 ng/mL (≈ 0.571 nM)
[4]; single 10 mg/kg po in 3% ethanol and 7% Tween 80, untreated 6-7 days
  Survival (days) 10 mg/kg po: 8.7 days
[4]; single 10 mg/kg po in 3% ethanol and 7% Tween 80 on day 1 post-infection, percent reduction in parasitemia on day 3
  Activity (%) 10 mg/kg po: 99.70%
[4]; untreated 6-7 days
  Survival (days) 10 mg/kg SSV po: 8.7 days
[4]; [11]
  Activity (%) 10 mg/kg SSV po: 99.67%
[4]; single 10 mg/kg sc in 3% ethanol and 7% Tween 80, untreated 6-7 days
  Survival (days) 10 mg/kg sc: 9.7 days
[4]; single 10 mg/kg sc in 3% ethanol and 7% Tween 80 on day 1 post-infection, percent reduction in parasitemia on day 3
  Activity (%) 10 mg/kg sc: 99.95%
[5]
  IC50: 0.3 ng/mL (≈ 0.856 nM)
[6]; iv, 10 mg/kg
  half-life: 94 min
[6]; po, 10 mg/kg
  bioavailability: 18.6%
[6]; po, 25 mg/kg
  bioavailability: 51.9%
  half-life: 73.3 min
P. berghei ANKA strain [7]
  Prophylactic Activity (%) 72 h: 13%
  Prophylactic Activity (%) 24 h: 82%
  Prophylactic Activity (%) 48 h: 29%
  Prophylactic Activity (%) 0 h: 100%
[8]; IV 10 mg/kg
  half-life: 85.4 min
[8]; oral 10 mg/kg
  half-life: 82.8 min
[8]; oral 10 mg/kg, read-out: Dog Oral Bioavailability 10 mg/kg
  bioavailability: 42%
[8]; oral 25 mg/kg, read-out: Dog Oral Bioavailability 25 mg/kg
  bioavailability: 38.3%

## NCC(=O)NC[C@H]1CC[C@]2(CC1)OO[C@]1(O2)C2CC3CC(C2)CC1C3 [OZ271]
P. berghei ANKA strain [9]
  Survival (days) 3 × 10 mg/kg p.o. SSV: 27.8 days
P. berghei ANKA strain [9]; parasitemia reduction on day 4
  Activity (%) 3 × 10 mg/kg p.o. SSV: 100%
P. berghei ANKA strain [9]; single 30 mg/kg po on day 1 post-infection
  Survival (days) 1 × 30 mg/kg p.o. SSV: 14 days
P. berghei ANKA strain [9]; single 30 mg/kg po on day 1 post-infection, parasitemia reduction on day 4
  Activity (%) 1 × 30 mg/kg p.o. SSV: 99.97%
P. berghei ANKA strain [9]; single 30 mg/kg po, cure = survival to day 30 post-infection
  Cures 1 × 30 mg/kg p.o. SSV: 0/5
[2]
  % reduction of adult worms growth at day 49 after per os application of 400 mg/kg, TWR (%): 0%
  Adult worms day 49, per os 400 mg/kg, DEAD WORM (%): 6%
[3]
  IC50: 0.29 ng/mL (≈ 0.827 nM)
[4]
  Survival (days) 3 mg/kg SSV po: 8.6 days
[4]; [11]
  Activity (%) 3 mg/kg SSV po: 99.52%
  Activity (%) 10 mg/kg SSV po: 99.93%
[4]; untreated 6-7 days
  Survival (days) 10 mg/kg SSV po: 8.7 days
P. berghei ANKA strain [10]; [12]
  Survival: 8.8 days
P. berghei ANKA strain [10]; [13]
  Survival: 16.2 days
P. berghei ANKA strain [10]; [14]
  Activity (%): 99.99%
P. berghei ANKA strain [10]; po, 1 mg/kg, 96 h
  Activity (%): 87%
P. berghei ANKA strain [10]; po
  Cures: 0\5
[5]
  IC50: 0.36 ng/mL (≈ 1.03 nM)
P. berghei ANKA strain [7]
  Prophylactic Activity (%) 72 h: 99.89%
  Prophylactic Activity (%) 24 h: 100%
  Prophylactic Activity (%) 48 h: 99.98%
  Prophylactic Activity (%) 0 h: 100%
P. berghei ANKA strain [7]; single 100 mg/kg po
  Duration of prophylactic protection: 3 days

## CC(C)(N)C(=O)NC[C@H]1CC[C@]2(CC1)OOC1(O2)C2CC3CC(C2)CC1C3 (stereo partly drawn) [OZ281]
[2]
  % reduction of adult worms growth at day 49 after per os application of 400 mg/kg, TWR (%): 12%
  Adult worms day 49, per os 400 mg/kg, DEAD WORM (%): 15%
[3]
  IC50: 0.3 ng/mL (≈ 0.793 nM)
[4]; [11]
  Activity (%) 3 mg/kg SSV po: 96%
  Activity (%) 10 mg/kg SSV po: 99.87%
[4]; untreated 6-7 days
  Survival (days) 10 mg/kg SSV po: 8.7 days
P. berghei ANKA strain [10]; [12]
  Survival: 13 days
P. berghei ANKA strain [10]; [13]
  Survival: 12.4 days
P. berghei ANKA strain [10]; [14]
  Activity (%): 100%
P. berghei ANKA strain [10]; po, 1 mg/kg, 96 h
  Activity (%): 92%
P. berghei ANKA strain [10]; po
  Cures: 0\5
[5]
  IC50: 0.5 ng/mL (≈ 1.32 nM)
P. berghei ANKA strain [7]
  Prophylactic Activity (%) 72 h: 8%
  Prophylactic Activity (%) 24 h: 99.23%
  Prophylactic Activity (%) 48 h: 45%
  Prophylactic Activity (%) 0 h: 100%

## c1cc(OC[C@H]2CC[C@]3(CC2)OO[C@]2(O3)C3CC4CC(C3)CC2C4)ccn1 [OZ301]
P. berghei ANKA strain [9]
  Survival (days) 3 × 10 mg/kg p.o. SSV: >30 days
P. berghei ANKA strain [9]; parasitemia reduction on day 4
  Activity (%) 3 × 10 mg/kg p.o. SSV: 100%
[4]
  Survival (days) 3 mg/kg SSV po: 8.4 days
[4]; [11]
  Activity (%) 3 mg/kg SSV po: 97%
  Activity (%) 10 mg/kg SSV po: 100%
[4]; untreated 6-7 days
  Survival (days) 10 mg/kg SSV po: 11.8 days
P. berghei ANKA strain [10]; 3 mg/kg po (SSV) on days 1, 2, 3 post-infection
  Cured infected mice at the 3×3 mg/kg dose: 1/5
P. berghei ANKA strain [10]; [12]
  Survival: 8.8 days
P. berghei ANKA strain [10]; 3 × 1 mg/kg p.o. SSV on days 1, 2, 3 post-infection, percent reduction of parasitemia vs control on day 4
  Activity (%): 58%
P. berghei ANKA strain [10]; [13]
  Survival: 23 days
P. berghei ANKA strain [10]; [14]
  Activity (%): 100%

## Cc1ccc(S(=O)(=O)O)cc1.N[C@H]1CC[C@H](NC(=O)C[C@H]2CC[C@]3(CC2)OO[C@]2(O3)C3CC4CC(C3)CC2C4)CC1 [OZ315]
P. berghei ANKA strain [9]
  Survival (days) 3 × 10 mg/kg p.o. SSV: >30 days
P. berghei ANKA strain [9]; parasitemia reduction on day 4
  Activity (%) 3 × 10 mg/kg p.o. SSV: 100%
[4]
  Survival (days) 3 mg/kg SSV po: 9.6 days
[4]; [11]
  Activity (%) 3 mg/kg SSV po: 92%
  Activity (%) 10 mg/kg SSV po: 99.97%
[4]; untreated 6-7 days
  Survival (days) 10 mg/kg SSV po: 11.2 days
P. berghei ANKA strain [10]; [12]
  Survival: 12.2 days
P. berghei ANKA strain [10]; [13]
  Survival: 22 days
P. berghei ANKA strain [10]; [14]
  Activity (%): 99.99%
P. berghei ANKA strain [10]; po, 1 mg/kg, 96 h
  Activity (%): 81%
P. berghei ANKA strain [10]; po
  Cures: 0\5
